# Source: PubChem BioAssay (NCI)
#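 96-well plates; 48 h exposure; 5 concentrations. Endpoints by linear interpolation between flanking doses. Not reached: highest tested concentration assigned. GI50 = concentration required for 50% inhibition of growth. TGI marks complete inhibition of growth.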
# Legend:
# Experiment in all cases: NCI-60 cell line screen, 48 h
# 786-0 renal = test system: 786-0 renal
# A498 renal = test system: A498 renal
# A549 NSCLC = test system: A549 NSCLC
# ACHN renal = test system: ACHN renal
# BT-549 breast = test system: BT-549 breast
# CAKI-1 renal = test system: CAKI-1 renal
# CCRF-CEM leukemia = test system: CCRF-CEM leukemia
# COLO 205 colon = test system: COLO 205 colon
# DU-145 prostate = test system: DU-145 prostate
# HCC-2998 colon = test system: HCC-2998 colon
# HCT-116 colon = test system: HCT-116 colon
# HCT-15 colon = test system: HCT-15 colon
# HL-60(TB) leukemia = test system: HL-60(TB) leukemia
# HOP-62 NSCLC = test system: HOP-62 NSCLC
# HOP-92 NSCLC = test system: HOP-92 NSCLC
# HS 578T breast = test system: HS 578T breast
# HT29 colon = test system: HT29 colon
# IGROV1 ovarian = test system: IGROV1 ovarian
# K-562 leukemia = test system: K-562 leukemia
# KM12 colon = test system: KM12 colon
# LOX IMVI melanoma = test system: LOX IMVI melanoma
# MCF7 breast = test system: MCF7 breast
# MDA-MB-231 breast = test system: MDA-MB-231 breast
# MDA-MB-435 = test system: MDA-MB-435
# NCI-H226 lung = test system: NCI-H226 lung
# NCI-H23 lung = test system: NCI-H23 lung
# NCI-H460 lung = test system: NCI-H460 lung
# NCI-H522 lung = test system: NCI-H522 lung
# NCI/ADR-RES ovarian = test system: NCI/ADR-RES ovarian
# OVCAR-3 ovarian = test system: OVCAR-3 ovarian
# OVCAR-4 ovarian = test system: OVCAR-4 ovarian
# OVCAR-5 ovarian = test system: OVCAR-5 ovarian
# OVCAR-8 ovarian = test system: OVCAR-8 ovarian
# RPMI-8226 leukemia = test system: RPMI-8226 leukemia
# RXF 393 renal = test system: RXF 393 renal
# SF-268 CNS = test system: SF-268 CNS
# SF-295 CNS = test system: SF-295 CNS
# SF-539 CNS = test system: SF-539 CNS
# SK-MEL-28 melanoma = test system: SK-MEL-28 melanoma
# SK-MEL-5 melanoma = test system: SK-MEL-5 melanoma
# SK-OV-3 ovarian = test system: SK-OV-3 ovarian
# SN12C renal = test system: SN12C renal
# SNB-19 CNS = test system: SNB-19 CNS
# SNB-75 CNS = test system: SNB-75 CNS
# SR leukemia = test system: SR leukemia
# SW-620 colon = test system: SW-620 colon
# T-47D breast = test system: T-47D breast
# TK-10 renal = test system: TK-10 renal
# U251 CNS = test system: U251 CNS
# UACC-257 melanoma = test system: UACC-257 melanoma
# UO-31 renal = test system: UO-31 renal
structure (smiles),measurement,setting,value
Cc1cc(Nc2ncc(F)c(N[C@H]3[C@@H](C(N)=O)[C@@H]4C=C[C@H]3C4)n2)ccc1N1CCN(C)CC1,GI50,786-0 renal,68.8 nM
same,TGI,786-0 renal,5250 nM
same,GI50,A498 renal,< 11.6 nM
same,TGI,A498 renal,69.3 nM
same,GI50,A549 NSCLC,< 10 nM
same,TGI,A549 NSCLC,2320 nM
same,GI50,ACHN renal,17.8 nM
same,TGI,ACHN renal,12900 nM
same,GI50,BT-549 breast,76.5 nM
same,TGI,BT-549 breast,1150 nM
same,GI50,CAKI-1 renal,21.7 nM
same,TGI,CAKI-1 renal,14000 nM
same,GI50,CCRF-CEM leukemia,< 10 nM
same,TGI,CCRF-CEM leukemia,6030 nM
same,GI50,COLO 205 colon,< 10 nM
same,TGI,COLO 205 colon,< 32.6 nM
same,GI50,DU-145 prostate,455 nM
same,TGI,DU-145 prostate,17700 nM
same,GI50,HCC-2998 colon,2150 nM
same,TGI,HCC-2998 colon,6180 nM
same,GI50,HCT-116 colon,19.9 nM
same,TGI,HCT-116 colon,7810 nM
same,GI50,HCT-15 colon,37.4 nM
same,TGI,HCT-15 colon,16000 nM
same,GI50,HL-60(TB) leukemia,2960 nM
same,TGI,HL-60(TB) leukemia,11400 nM
same,GI50,HOP-62 NSCLC,134 nM
same,TGI,HOP-62 NSCLC,2560 nM
same,GI50,HOP-92 NSCLC,24.9 nM
same,TGI,HOP-92 NSCLC,327 nM
same,GI50,HS 578T breast,27.4 nM
same,TGI,HS 578T breast,330 nM
same,GI50,HT29 colon,47.1 nM
same,GI50,IGROV1 ovarian,30.2 nM
same,TGI,IGROV1 ovarian,18800 nM
same,GI50,K-562 leukemia,416 nM
same,TGI,K-562 leukemia,> 100000 nM
same,GI50,KM12 colon,208 nM
same,TGI,KM12 colon,11500 nM
same,GI50,LOX IMVI melanoma,24.9 nM
same,TGI,LOX IMVI melanoma,1290 nM
same,GI50,MCF7 breast,59.9 nM
same,TGI,MCF7 breast,3230 nM
same,GI50,MDA-MB-231 breast,124 nM
same,TGI,MDA-MB-231 breast,1730 nM
same,GI50,MDA-MB-435,1490 nM
same,TGI,MDA-MB-435,15600 nM
same,GI50,NCI-H226 lung,< 15.6 nM
same,TGI,NCI-H226 lung,2850 nM
same,GI50,NCI-H23 lung,1510 nM
same,TGI,NCI-H23 lung,7150 nM
same,GI50,NCI-H460 lung,10.1 nM
same,TGI,NCI-H460 lung,4210 nM
same,GI50,NCI-H522 lung,43.6 nM
same,TGI,NCI-H522 lung,3350 nM
same,GI50,NCI/ADR-RES ovarian,348 nM
same,TGI,NCI/ADR-RES ovarian,8570 nM
same,GI50,OVCAR-3 ovarian,1480 nM
same,TGI,OVCAR-3 ovarian,3150 nM
same,GI50,OVCAR-4 ovarian,1600 nM
same,TGI,OVCAR-4 ovarian,3220 nM
same,GI50,OVCAR-5 ovarian,40.5 nM
same,TGI,OVCAR-5 ovarian,> 20400 nM
same,GI50,OVCAR-8 ovarian,133 nM
same,TGI,OVCAR-8 ovarian,6340 nM
same,GI50,RPMI-8226 leukemia,1860 nM
same,TGI,RPMI-8226 leukemia,6850 nM
same,GI50,RXF 393 renal,16.5 nM
same,TGI,RXF 393 renal,187 nM
same,GI50,SF-268 CNS,107 nM
same,TGI,SF-268 CNS,6680 nM
same,GI50,SF-295 CNS,< 17.7 nM
same,TGI,SF-295 CNS,12700 nM
same,GI50,SF-539 CNS,36.2 nM
same,TGI,SF-539 CNS,586 nM
same,GI50,SK-MEL-28 melanoma,4280 nM
same,TGI,SK-MEL-28 melanoma,17700 nM
same,GI50,SK-MEL-5 melanoma,1970 nM
same,TGI,SK-MEL-5 melanoma,6790 nM
same,GI50,SK-OV-3 ovarian,36.8 nM
same,TGI,SK-OV-3 ovarian,2220 nM
same,GI50,SN12C renal,32.8 nM
same,TGI,SN12C renal,11500 nM
same,GI50,SNB-19 CNS,725 nM
same,TGI,SNB-19 CNS,8750 nM
same,GI50,SNB-75 CNS,< 15.3 nM
same,TGI,SNB-75 CNS,167 nM
same,GI50,SR leukemia,< 10 nM
same,TGI,SR leukemia,2320 nM
same,GI50,SW-620 colon,21.8 nM
same,TGI,SW-620 colon,8500 nM
same,GI50,T-47D breast,6740 nM
same,TGI,T-47D breast,26700 nM
same,GI50,TK-10 renal,22.5 nM
same,TGI,TK-10 renal,1960 nM
same,GI50,U251 CNS,69.4 nM
same,TGI,U251 CNS,4800 nM
same,GI50,UACC-257 melanoma,4070 nM
same,TGI,UACC-257 melanoma,18100 nM
same,GI50,UO-31 renal,39.3 nM
same,TGI,UO-31 renal,4640 nM
